Assays:
[1] = Sensory evaluation of aqueous solution I containing (E)-2-nonenal 1 ppb: off-flavor intensity and masking component intensity; conditions: (E)-2-nonenal 1 ppb, average score 0-4
How it was run: (§1)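 Nootkatone added to degradation-component solutions in ion-exchanged water and scored by eight experienced panelists. Off-flavor rated 0–4 relative to unmasked solution (4) and plain water (0). Masking-component intensity rated on an absolute 0–4 scale.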

[2] = Sensory evaluation of aqueous solution II containing (E)-2-octenal 10 ppb: off-flavor intensity and masking component intensity; conditions: (E)-2-octenal 10 ppb, average score 0-4
How it was run: as §1

[3] = Sensory evaluation of aqueous solution III containing 1-octen-3-one 1 ppb: off-flavor intensity and masking component intensity; conditions: 1-octen-3-one 1 ppb, average score 0-4
How it was run: as §1

[4] = Sensory evaluation of aqueous solution IV containing 1,5-octadien-3-one 100 ppt: off-flavor intensity and masking component intensity; conditions: aqueous solution IV, 1,5-octadien-3-one 100 ppt, average score 0-4
How it was run: as §1

[5] = Sensory evaluation of aqueous solution V containing 1-octen-3-ol 10 ppb: off-flavor intensity and masking component intensity; conditions: 1-octen-3-ol 10 ppb, average score 0-4
How it was run: as §1

[6] = Sensory evaluation of aqueous solution VI containing 1,5-octadien-3-ol 10 ppb: off-flavor intensity and masking component intensity; conditions: aqueous solution VI, 1,5-octadien-3-ol 10 ppb, average score 0-4
How it was run: as §1

[7] = Overall conclusion of the sensory evaluation across aqueous solutions I to VI
How it was run: as §1

Structure (SMILES): CCCC(=O)C(C)=O [2,3-Hexanedione, 2,3-hexanedione]
- Off-Flavor Intensity ([1]; 1 ppb added): 3.4 points
- Off-Flavor Intensity ([1]; 1 ppm added): 1.6 points
- Off-Flavor Intensity ([1]; 5 ppb added): 3.4 points
- Off-Flavor Intensity ([1]; 5 ppm added): 1.1 points
- Off-Flavor Intensity ([1]; 10 ppb added): 3.3 points
- Off-Flavor Intensity ([1]; 10 ppm added): 0.9 points
- Off-Flavor Intensity ([1]; 50 ppb added): 2.6 points
- Off-Flavor Intensity ([1]; 100 ppb added): 2.4 points
- Off-Flavor Intensity ([1]; 500 ppb added): 2.0 points
- Off-Flavor Intensity ([2]; 1 ppb added): 3.0 points
- Off-Flavor Intensity ([2]; 1 ppm added): 2.0 points
- Off-Flavor Intensity ([2]; 5 ppb added): 3.0 points
- Off-Flavor Intensity ([2]; 5 ppm added): 1.4 points
- Off-Flavor Intensity ([2]; 10 ppb added): 2.6 points
- Off-Flavor Intensity ([2]; 10 ppm added): 1.0 points
- Off-Flavor Intensity ([2]; 50 ppb added): 2.5 points
- Off-Flavor Intensity ([2]; 100 ppb added): 2.0 points
- Off-Flavor Intensity ([2]; 500 ppb added): 2.0 points
- Off-Flavor Intensity ([3]; 1 ppb added): 4.0 points
- Off-Flavor Intensity ([3]; 1 ppm added): 2.3 points
- Off-Flavor Intensity ([3]; 5 ppb added): 3.9 points
- Off-Flavor Intensity ([3]; 5 ppm added): 1.8 points
- Off-Flavor Intensity ([3]; 10 ppb added): 3.6 points
- Off-Flavor Intensity ([3]; 10 ppm added): 1.5 points
- Off-Flavor Intensity ([3]; 50 ppb added): 3.4 points
- Off-Flavor Intensity ([3]; 100 ppb added): 3.0 points
- Off-Flavor Intensity ([3]; 500 ppb added): 2.5 points
- Off-Flavor Intensity ([4]; 1 ppb added): 3.6 points
- Off-Flavor Intensity ([4]; 1 ppm added): 2.1 points
- Off-Flavor Intensity ([4]; 5 ppb added): 3.5 points
- Off-Flavor Intensity ([4]; 5 ppm added): 1.5 points
- Off-Flavor Intensity ([4]; 10 ppb added): 3.4 points
- Off-Flavor Intensity ([4]; 10 ppm added): 0.8 points
- Off-Flavor Intensity ([4]; 50 ppb added): 2.9 points
- Off-Flavor Intensity ([4]; 100 ppb added): 2.9 points
- Off-Flavor Intensity ([4]; 500 ppb added): 2.6 points
- Off-Flavor Intensity ([5]; 1 ppb added): 3.1 points
- Off-Flavor Intensity ([5]; 1 ppm added): 1.5 points
- Off-Flavor Intensity ([5]; 5 ppb added): 2.9 points
- Off-Flavor Intensity ([5]; 5 ppm added): 0.9 points
- Off-Flavor Intensity ([5]; 10 ppb added): 2.5 points
- Off-Flavor Intensity ([5]; 10 ppm added): 0.4 points
- Off-Flavor Intensity ([5]; 50 ppb added): 2.3 points
- Off-Flavor Intensity ([5]; 100 ppb added): 2.0 points
- Off-Flavor Intensity ([5]; 500 ppb added): 1.8 points
- Off-Flavor Intensity ([6]; 1 ppb added): 3.4 points
- Off-Flavor Intensity ([6]; 1 ppm added): 1.6 points
- Off-Flavor Intensity ([6]; 5 ppb added): 3.4 points
- Off-Flavor Intensity ([6]; 5 ppm added): 1.0 points
- Off-Flavor Intensity ([6]; 10 ppb added): 3.0 points
- Off-Flavor Intensity ([6]; 10 ppm added): 0.5 points
- Off-Flavor Intensity ([6]; 50 ppb added): 2.8 points
- Off-Flavor Intensity ([6]; 100 ppb added): 2.6 points
- Off-Flavor Intensity ([6]; 500 ppb added): 2.1 points
- concentration that masks the off-flavor and does not affect the flavor of the food and/or beverage itself, lower limit [7]: ≥ 1 ppb
- concentration that masks the off-flavor and does not affect the flavor of the food and/or beverage itself, upper limit [7]: ≤ 1 ppm

Structure (SMILES): CC(=O)/C=C/C1C(C)=CCCC1(C)C (stereo not drawn) [α-Ionone, α-ionone]
- Off-Flavor Intensity ([1]; 0.1 ppt added): 3.9 points
- Off-Flavor Intensity ([1]; 1 ppb added): 2.3 points
- Off-Flavor Intensity ([1]; 1 ppm added): 0.6 points
- Off-Flavor Intensity ([1]; 1 ppt added): 3.6 points
- Off-Flavor Intensity ([1]; 10 ppb added): 1.8 points
- Off-Flavor Intensity ([1]; 10 ppm added): 0.3 points
- Off-Flavor Intensity ([1]; 10 ppt added): 3.1 points
- Off-Flavor Intensity ([1]; 100 ppb added): 1.3 points
- Off-Flavor Intensity ([1]; 100 ppt added): 2.6 points
- Off-Flavor Intensity ([2]; 0.1 ppt added): 3.1 points
- Off-Flavor Intensity ([2]; 1 ppb added): 1.9 points
- Off-Flavor Intensity ([2]; 1 ppm added): 0.1 points
- Off-Flavor Intensity ([2]; 1 ppt added): 2.9 points
- Off-Flavor Intensity ([2]; 10 ppb added): 1.5 points
- Off-Flavor Intensity ([2]; 10 ppm added): 0.0 points
- Off-Flavor Intensity ([2]; 10 ppt added): 2.5 points
- Off-Flavor Intensity ([2]; 100 ppb added): 0.8 points
- Off-Flavor Intensity ([2]; 100 ppt added): 2.4 points
- Off-Flavor Intensity ([3]; 0.1 ppt added): 3.6 points
- Off-Flavor Intensity ([3]; 1 ppb added): 2.4 points
- Off-Flavor Intensity ([3]; 1 ppm added): 0.8 points
- Off-Flavor Intensity ([3]; 1 ppt added): 3.4 points
- Off-Flavor Intensity ([3]; 10 ppb added): 1.9 points
- Off-Flavor Intensity ([3]; 10 ppm added): 0.1 points
- Off-Flavor Intensity ([3]; 10 ppt added): 3.0 points
- Off-Flavor Intensity ([3]; 100 ppb added): 1.6 points
- Off-Flavor Intensity ([3]; 100 ppt added): 2.8 points
- Off-Flavor Intensity ([4]; 0.1 ppt added): 3.5 points
- Off-Flavor Intensity ([4]; 1 ppb added): 2.4 points
- Off-Flavor Intensity ([4]; 1 ppm added): 1.0 points
- Off-Flavor Intensity ([4]; 1 ppt added): 3.4 points
- Off-Flavor Intensity ([4]; 10 ppb added): 2.1 points
- Off-Flavor Intensity ([4]; 10 ppm added): 0.1 points
- Off-Flavor Intensity ([4]; 10 ppt added): 3.1 points
- Off-Flavor Intensity ([4]; 100 ppb added): 1.6 points
- Off-Flavor Intensity ([4]; 100 ppt added): 2.9 points
- Off-Flavor Intensity ([5]; 0.1 ppt added): 3.1 points
- Off-Flavor Intensity ([5]; 1 ppb added): 1.9 points
- Off-Flavor Intensity ([5]; 1 ppm added): 0.5 points
- Off-Flavor Intensity ([5]; 1 ppt added): 3.0 points
- Off-Flavor Intensity ([5]; 10 ppb added): 1.5 points
- Off-Flavor Intensity ([5]; 10 ppm added): 0.0 points
- Off-Flavor Intensity ([5]; 10 ppt added): 2.5 points
- Off-Flavor Intensity ([5]; 100 ppb added): 1.0 points
- Off-Flavor Intensity ([5]; 100 ppt added): 2.3 points
- Off-Flavor Intensity ([6]; 0.1 ppt added): 3.1 points
- Off-Flavor Intensity ([6]; 1 ppb added): 1.8 points
- Off-Flavor Intensity ([6]; 1 ppm added): 0.1 points
- Off-Flavor Intensity ([6]; 1 ppt added): 2.9 points
- Off-Flavor Intensity ([6]; 10 ppb added): 1.5 points
- Off-Flavor Intensity ([6]; 10 ppm added): 0.0 points
- Off-Flavor Intensity ([6]; 10 ppt added): 2.5 points
- Off-Flavor Intensity ([6]; 100 ppb added): 0.8 points
- Off-Flavor Intensity ([6]; 100 ppt added): 2.0 points
- concentration that masks the off-flavor and does not affect the flavor of the food and/or beverage itself, lower limit [7]: ≥ 1 ppt
- concentration that masks the off-flavor and does not affect the flavor of the food and/or beverage itself, upper limit [7]: ≤ 100 ppb
